What was measured:
C1r = molecular target: T1, C1r (Homo sapiens, UniProt P00736); assay: anti-complement (anti-C1 esterase) activity, C1r hydrolysis of AAME (acetyl-arginine methyl ester); assay type: biochemical
T1 sequence (P00736 18-705): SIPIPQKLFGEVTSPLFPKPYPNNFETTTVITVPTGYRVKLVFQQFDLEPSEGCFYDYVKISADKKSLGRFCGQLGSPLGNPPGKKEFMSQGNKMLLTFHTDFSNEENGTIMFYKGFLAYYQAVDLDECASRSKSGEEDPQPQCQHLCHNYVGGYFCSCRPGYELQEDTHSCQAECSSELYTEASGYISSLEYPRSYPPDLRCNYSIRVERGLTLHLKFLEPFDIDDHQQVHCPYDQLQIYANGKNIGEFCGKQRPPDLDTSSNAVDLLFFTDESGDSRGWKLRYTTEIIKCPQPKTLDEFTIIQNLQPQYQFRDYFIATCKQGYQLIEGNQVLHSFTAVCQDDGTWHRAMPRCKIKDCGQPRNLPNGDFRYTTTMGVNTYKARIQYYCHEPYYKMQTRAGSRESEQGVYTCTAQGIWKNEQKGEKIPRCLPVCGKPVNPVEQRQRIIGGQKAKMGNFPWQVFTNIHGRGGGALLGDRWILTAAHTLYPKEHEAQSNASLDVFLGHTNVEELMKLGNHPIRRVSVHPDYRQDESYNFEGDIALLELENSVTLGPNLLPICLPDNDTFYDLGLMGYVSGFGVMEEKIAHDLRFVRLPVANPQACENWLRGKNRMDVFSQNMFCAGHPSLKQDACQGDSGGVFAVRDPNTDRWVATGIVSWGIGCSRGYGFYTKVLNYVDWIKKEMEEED

plasmin = plasmin (Homo sapiens, UniProt P00747); assay: anti-plasmin activity, hydrolysis of TAME (tosylarginine methyl ester); assay type: biochemical; details: hydrolysis of TAME; read-out: Pla: molar concentration inhibiting 50% of enzyme activity (IC50)
Sequence of plasmin (P00747 581-810 limits assumed, species assumed): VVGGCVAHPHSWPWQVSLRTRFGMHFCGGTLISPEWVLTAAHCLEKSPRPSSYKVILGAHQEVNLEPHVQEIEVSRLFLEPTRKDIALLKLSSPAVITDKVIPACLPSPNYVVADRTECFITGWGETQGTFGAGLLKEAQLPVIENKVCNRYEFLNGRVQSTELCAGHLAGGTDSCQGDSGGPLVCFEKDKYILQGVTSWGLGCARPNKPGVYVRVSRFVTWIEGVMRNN
Sequence of plasmin (P00747 97-580 partner limits assumed, species assumed): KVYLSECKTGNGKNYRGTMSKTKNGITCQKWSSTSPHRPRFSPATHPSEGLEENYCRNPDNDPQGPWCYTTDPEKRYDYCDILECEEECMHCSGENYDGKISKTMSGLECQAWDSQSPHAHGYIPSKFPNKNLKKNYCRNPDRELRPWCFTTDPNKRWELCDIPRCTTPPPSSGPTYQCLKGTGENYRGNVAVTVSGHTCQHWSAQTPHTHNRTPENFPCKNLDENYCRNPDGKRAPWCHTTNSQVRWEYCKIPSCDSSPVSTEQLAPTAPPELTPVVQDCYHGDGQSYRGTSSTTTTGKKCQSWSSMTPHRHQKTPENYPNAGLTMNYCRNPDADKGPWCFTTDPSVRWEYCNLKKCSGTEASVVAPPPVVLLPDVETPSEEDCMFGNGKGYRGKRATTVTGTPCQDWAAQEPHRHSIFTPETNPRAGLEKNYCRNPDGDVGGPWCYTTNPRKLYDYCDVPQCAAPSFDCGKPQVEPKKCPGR
Description: The values in Table 1 represent molar concentrations (IC50) of test compounds which inhibit 50% of the activity of each enzyme to hydrolyze TAME (tosylarginine methyl ester). The anti-trypsin, anti-plasmin, anti-kallikrein and anti-thrombin activities were determined according to the method of Muramatsu et al. (J. Biochem. (1965), volume 58, page 214).

[1] = monkey subacute toxicity test; assay type: in vivo; details: oral
Description: The compound of Example 22 was tested in three groups (five monkeys per group) of monkeys at dosages of (1) 3 mg/kg/day, (2) 30 mg/kg/day, and (3) 300 mg/kg/day; the compound was administered orally (dose volume was 2 ml/kg) by gavage once a day for 13 weeks. Administration was followed by 20 ml sterile water per animal. Control monkeys received only the vehicle (sterile water for injection, U.S.P.) on the same regimen as the experimental groups. All doses were administered using a 18 French rubber catheter attached to a syringe.

trypsin = molecular target: T2, trypsin (Bos taurus, UniProt P00760); assay: anti-trypsin activity, hydrolysis of TAME (tosylarginine methyl ester); assay type: biochemical
T2 sequence (P00760 24-246): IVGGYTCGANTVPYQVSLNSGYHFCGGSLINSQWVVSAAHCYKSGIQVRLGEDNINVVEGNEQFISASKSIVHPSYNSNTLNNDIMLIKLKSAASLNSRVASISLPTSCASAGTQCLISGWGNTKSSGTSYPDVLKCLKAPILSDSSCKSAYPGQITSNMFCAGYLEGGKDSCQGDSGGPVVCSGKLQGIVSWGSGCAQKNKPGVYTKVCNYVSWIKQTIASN

Cl.N=C(N)c1ccc2cc(OC(=O)c3ccc(CNC(=O)CCCC(=O)O)o3)ccc2c1 [Example 22, 6-Amidino-2-naphthyl 5-(4-carboxybutyrylaminomethyl)furan-2-carboxylate hydrochloride]
C1r inhibition (in words) (C1r): inhibitor | inhibition at 10 µM (C1r; at a concentration of 1 × 10^-5 M, read-out: Clr: percentage inhibition): 49% | IC50 (plasmin): 430 nM | general conditions, biochemical examination, and survival (in words) ([1]; 13 weeks, up to 300 mg/kg/day): no changes were found | toxicity (in words) ([1]; three months, even at 300 mg/kg): no toxicity was recognized | trypsin inhibition (in words) (trypsin): inhibitor | IC50 (trypsin; hydrolysis of TAME, read-out: Try: molar concentration inhibiting 50% of enzyme activity (IC50)): 430 nM

Source: patent US5532267A, “Amidinonaphthyl furancarboxylate derivatives and acid addition salts therof” (Torii & Co., Ltd., priority 1992, dated 1996)
